Measured values as given in article PMC7563551, “The Cytokine IL-1β and Piperine Complex Surveyed by Experimental and Computational Molecular Biophysics” (Biomolecules, 2020).

Target: T1, IL-1β (interleukin-1 beta) (Homo sapiens, UniProt P01584)
T1 construct: gene IL1B; 153 residues, single Trp120 and extinction coefficient 11,460 fit the human mature chain; docking model 1ITB chain A
Experiment: Trp120 fluorescence quenching titration, interaction density function with Scatchard plot
Assay type: binding
Settings: read-out: Kb

T1 sequence (P01584 117-269): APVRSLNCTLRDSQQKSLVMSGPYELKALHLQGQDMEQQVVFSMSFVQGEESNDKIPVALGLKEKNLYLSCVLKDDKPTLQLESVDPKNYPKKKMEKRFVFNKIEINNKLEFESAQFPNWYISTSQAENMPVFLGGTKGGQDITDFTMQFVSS

`O=C(/C=C/C=C/c1ccc2c(c1)OCO2)N1CCCCC1` [piperine] was tested, and the Kd was 6.99 µM.
